This passage reports Residual activity results from PMC9030254, “Target Hopping from Protein Kinases to PXR: Identification of Small-Molecule Protein Kinase Inhibitors as Selective Modulators of Pregnane X Receptor from TüKIC Library” (Cells, 2022).

Test in all cases: Kinase profiling
What all share (assay type): biochemical

One experiment has as its target T1, RPS6KA3 (Homo sapiens, UniProt P51812).
T1 construct: purchased ProQinase (Freiburg, Germany)
Here is the method: (§1) The analysis was performed by ProQinase (Freiburg, Germany).

For the next experiment, the target named is T2, HCK (Homo sapiens, UniProt P08631).
T2 construct: purchased ProQinase (Freiburg, Germany)
Here is the method: as §1

Another experiment has as its target T3, SAK (Homo sapiens, UniProt O00444).
T3 construct: purchased ProQinase (Freiburg, Germany)
T3 sequence (O00444 1-970): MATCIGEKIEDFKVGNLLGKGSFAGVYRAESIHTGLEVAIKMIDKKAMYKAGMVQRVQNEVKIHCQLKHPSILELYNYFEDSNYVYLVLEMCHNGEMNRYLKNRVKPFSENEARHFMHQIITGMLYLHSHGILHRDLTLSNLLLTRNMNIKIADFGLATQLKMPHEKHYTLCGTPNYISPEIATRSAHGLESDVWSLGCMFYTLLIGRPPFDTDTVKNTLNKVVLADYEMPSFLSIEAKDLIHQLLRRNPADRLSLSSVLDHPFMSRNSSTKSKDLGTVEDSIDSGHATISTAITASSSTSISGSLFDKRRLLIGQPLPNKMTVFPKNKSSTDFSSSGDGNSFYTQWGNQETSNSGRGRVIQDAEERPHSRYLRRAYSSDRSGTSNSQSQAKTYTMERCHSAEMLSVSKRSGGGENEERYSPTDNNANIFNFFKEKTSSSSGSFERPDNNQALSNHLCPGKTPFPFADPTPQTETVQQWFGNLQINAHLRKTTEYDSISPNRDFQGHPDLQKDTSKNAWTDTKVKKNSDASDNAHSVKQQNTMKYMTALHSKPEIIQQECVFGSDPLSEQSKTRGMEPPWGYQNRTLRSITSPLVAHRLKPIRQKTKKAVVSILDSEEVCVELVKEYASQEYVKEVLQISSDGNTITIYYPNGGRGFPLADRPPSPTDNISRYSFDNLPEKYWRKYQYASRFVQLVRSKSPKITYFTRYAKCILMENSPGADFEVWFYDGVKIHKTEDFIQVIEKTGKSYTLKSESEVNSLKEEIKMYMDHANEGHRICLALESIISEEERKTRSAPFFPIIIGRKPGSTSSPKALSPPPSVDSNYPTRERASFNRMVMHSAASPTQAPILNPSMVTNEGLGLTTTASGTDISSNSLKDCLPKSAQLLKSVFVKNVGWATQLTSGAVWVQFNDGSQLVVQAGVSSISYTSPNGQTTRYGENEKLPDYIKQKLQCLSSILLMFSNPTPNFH
The procedure:
as §1

The target in the next experiment is T4, ACVR2B (Homo sapiens, UniProt Q13705).
T4 construct: purchased ProQinase (Freiburg, Germany)
The procedure: as §1

In the next experiment the target is T5, TTBK2 (Homo sapiens, UniProt Q6IQ55).
T5 construct: purchased ProQinase (Freiburg, Germany)
Here is the method: as §1

In a further experiment the target is T6, CDK2/CycD1 (Homo sapiens, UniProt P24941).
T6 construct: purchased ProQinase (Freiburg, Germany)
The procedure:
as §1

Another experiment deals with T7, IKKalpha (Homo sapiens, UniProt O15111).
T7 construct: purchased ProQinase (Freiburg, Germany)
T7 sequence (O15111 1-745): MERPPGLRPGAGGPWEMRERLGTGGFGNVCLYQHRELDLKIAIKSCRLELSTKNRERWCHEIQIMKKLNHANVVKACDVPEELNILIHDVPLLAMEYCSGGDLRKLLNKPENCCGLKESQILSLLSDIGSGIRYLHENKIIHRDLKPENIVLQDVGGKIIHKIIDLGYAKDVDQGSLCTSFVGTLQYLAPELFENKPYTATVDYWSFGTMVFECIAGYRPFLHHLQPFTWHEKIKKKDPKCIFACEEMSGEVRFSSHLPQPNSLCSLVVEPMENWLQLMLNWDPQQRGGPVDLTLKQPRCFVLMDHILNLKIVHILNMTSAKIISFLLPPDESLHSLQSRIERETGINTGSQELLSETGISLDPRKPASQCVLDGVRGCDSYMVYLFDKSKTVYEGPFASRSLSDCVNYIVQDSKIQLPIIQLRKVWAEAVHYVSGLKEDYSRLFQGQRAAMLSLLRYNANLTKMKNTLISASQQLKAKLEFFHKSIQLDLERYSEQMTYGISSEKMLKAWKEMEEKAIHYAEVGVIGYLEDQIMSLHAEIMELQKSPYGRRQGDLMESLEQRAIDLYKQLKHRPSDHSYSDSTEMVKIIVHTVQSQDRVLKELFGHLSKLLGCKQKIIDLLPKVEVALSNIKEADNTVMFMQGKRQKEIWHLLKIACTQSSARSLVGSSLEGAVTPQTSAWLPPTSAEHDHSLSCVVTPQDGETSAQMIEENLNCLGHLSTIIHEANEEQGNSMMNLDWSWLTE
Here is the method: as §1

Molecules are shown by their SMILES.

T2 sequence (P08631 whole entry): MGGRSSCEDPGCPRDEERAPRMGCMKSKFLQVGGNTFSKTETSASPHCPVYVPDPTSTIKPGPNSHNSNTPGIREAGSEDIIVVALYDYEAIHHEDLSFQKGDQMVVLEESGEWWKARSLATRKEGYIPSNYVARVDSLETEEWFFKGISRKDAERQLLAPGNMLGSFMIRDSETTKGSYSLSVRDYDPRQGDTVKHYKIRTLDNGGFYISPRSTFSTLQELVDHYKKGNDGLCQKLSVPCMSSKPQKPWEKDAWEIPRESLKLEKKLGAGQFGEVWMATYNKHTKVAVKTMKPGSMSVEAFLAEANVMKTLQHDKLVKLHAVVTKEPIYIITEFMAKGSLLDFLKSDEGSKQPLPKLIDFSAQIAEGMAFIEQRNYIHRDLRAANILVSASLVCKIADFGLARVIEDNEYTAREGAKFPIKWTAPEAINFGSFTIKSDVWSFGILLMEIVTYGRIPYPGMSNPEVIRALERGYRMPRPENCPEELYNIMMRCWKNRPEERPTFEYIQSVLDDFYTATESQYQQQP
T4 sequence (Q13705 19-512): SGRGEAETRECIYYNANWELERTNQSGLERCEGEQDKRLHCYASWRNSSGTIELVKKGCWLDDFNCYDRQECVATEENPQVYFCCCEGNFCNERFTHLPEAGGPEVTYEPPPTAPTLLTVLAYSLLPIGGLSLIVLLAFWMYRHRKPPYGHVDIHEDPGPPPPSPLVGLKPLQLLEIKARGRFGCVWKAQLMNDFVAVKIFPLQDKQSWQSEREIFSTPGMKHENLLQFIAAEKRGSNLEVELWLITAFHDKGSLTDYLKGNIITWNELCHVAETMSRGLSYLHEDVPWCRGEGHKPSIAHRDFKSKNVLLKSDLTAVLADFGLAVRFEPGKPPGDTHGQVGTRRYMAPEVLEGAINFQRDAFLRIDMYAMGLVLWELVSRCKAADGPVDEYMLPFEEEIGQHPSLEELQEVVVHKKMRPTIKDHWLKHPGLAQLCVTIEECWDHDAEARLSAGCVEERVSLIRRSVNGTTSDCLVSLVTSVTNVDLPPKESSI
T5 sequence (Q6IQ55 whole entry): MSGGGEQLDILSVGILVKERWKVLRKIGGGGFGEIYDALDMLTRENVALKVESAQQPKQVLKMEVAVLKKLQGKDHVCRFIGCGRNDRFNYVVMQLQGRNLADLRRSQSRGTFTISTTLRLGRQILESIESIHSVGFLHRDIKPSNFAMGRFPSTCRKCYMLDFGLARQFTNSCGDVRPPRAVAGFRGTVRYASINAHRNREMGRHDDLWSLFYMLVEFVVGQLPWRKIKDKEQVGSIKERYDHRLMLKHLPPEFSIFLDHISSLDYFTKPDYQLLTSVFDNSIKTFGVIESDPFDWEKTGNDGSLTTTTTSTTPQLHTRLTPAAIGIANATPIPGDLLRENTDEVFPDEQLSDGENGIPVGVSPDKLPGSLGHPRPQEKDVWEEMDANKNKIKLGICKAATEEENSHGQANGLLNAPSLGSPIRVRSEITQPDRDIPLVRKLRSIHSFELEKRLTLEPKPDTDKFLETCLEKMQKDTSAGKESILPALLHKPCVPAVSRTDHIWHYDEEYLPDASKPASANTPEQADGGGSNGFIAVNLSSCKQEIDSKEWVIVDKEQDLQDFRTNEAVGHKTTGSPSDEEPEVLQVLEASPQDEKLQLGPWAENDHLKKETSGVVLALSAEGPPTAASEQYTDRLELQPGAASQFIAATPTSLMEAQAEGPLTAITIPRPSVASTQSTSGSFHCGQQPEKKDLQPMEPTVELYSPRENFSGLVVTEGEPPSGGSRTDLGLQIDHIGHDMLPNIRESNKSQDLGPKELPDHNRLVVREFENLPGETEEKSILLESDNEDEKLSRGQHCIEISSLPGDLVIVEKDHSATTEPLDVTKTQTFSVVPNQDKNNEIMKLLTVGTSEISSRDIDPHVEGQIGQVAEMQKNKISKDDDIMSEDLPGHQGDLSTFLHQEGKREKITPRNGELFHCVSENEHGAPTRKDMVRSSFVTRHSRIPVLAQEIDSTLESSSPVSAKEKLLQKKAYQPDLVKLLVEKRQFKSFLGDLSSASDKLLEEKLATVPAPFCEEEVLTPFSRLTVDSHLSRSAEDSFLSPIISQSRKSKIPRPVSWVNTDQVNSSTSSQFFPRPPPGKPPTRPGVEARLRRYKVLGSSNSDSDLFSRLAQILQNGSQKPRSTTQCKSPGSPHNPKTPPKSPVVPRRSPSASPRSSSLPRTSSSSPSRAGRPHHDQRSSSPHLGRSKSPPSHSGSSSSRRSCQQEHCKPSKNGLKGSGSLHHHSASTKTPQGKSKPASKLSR
T1 sequence (P51812 whole entry): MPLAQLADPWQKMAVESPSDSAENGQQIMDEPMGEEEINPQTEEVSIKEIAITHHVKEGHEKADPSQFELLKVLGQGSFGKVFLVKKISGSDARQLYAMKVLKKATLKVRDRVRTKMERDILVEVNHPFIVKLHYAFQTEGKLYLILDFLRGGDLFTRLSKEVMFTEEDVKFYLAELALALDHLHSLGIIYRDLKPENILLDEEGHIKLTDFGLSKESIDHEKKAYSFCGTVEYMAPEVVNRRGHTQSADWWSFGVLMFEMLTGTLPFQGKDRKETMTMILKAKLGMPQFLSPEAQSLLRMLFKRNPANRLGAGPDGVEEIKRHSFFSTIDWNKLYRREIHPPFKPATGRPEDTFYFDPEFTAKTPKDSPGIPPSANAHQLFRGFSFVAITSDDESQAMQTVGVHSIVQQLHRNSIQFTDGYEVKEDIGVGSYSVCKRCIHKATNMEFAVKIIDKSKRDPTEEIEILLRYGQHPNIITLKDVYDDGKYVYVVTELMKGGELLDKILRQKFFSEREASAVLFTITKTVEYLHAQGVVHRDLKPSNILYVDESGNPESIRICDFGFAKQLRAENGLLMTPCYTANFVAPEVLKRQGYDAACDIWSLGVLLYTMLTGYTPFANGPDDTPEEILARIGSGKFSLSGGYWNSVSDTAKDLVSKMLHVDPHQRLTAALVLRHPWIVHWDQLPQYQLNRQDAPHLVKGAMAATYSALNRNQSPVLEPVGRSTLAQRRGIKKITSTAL

As to `O=C(Cc1ccccc1)Nc1ccc(F)c(Nc2ccc3c(c2)CCCCC3=O)c1` [Compound 100], the Residual activity at RPS6KA3 (1.0E-05 M) is on record as 80 % of control; on RPS6KA3 (1.0E-06 M) it was 97 % of control; on HCK (1.0E-05 M) it was 95 % of control; at HCK (1.0E-06 M), 107 % of control; at SAK (1.0E-05 M), 81 % of control; at SAK (1.0E-06 M) it was 92 % of control. In addition, the Residual activity on ACVR2B (1.0E-05 M) is recorded as 169 % of control; at ACVR2B (1.0E-06 M), 95 % of control; at TTBK2 (1.0E-05 M) it was 126 % of control; at TTBK2 (1.0E-06 M), 109 % of control; on CDK2/CycD1 (1.0E-05 M), 119 % of control; at CDK2/CycD1 (1.0E-06 M), 102 % of control. In addition, the Residual activity at IKKalpha (1.0E-05 M) and on IKKalpha (1.0E-06 M) was 102 % of control each time.
In the case of `O=C(Nc1ccc(F)c(Nc2ccc3c(c2)CCCCC3=O)c1)c1cccc(F)c1` [Compound 109], the Residual activity is recorded as 84 % of control at RPS6KA3 (1.0E-05 M); 90 % of control at RPS6KA3 (1.0E-06 M); 76 % of control at HCK (1.0E-05 M); 99 % of control at HCK (1.0E-06 M); 71 % of control on SAK (1.0E-05 M); 89 % of control on SAK (1.0E-06 M). Also, the Residual activity is recorded as 167 % of control at ACVR2B (1.0E-05 M); 104 % of control on ACVR2B (1.0E-06 M); 113 % of control on TTBK2 (1.0E-05 M); 105 % of control on TTBK2 (1.0E-06 M); 87 % of control on CDK2/CycD1 (1.0E-05 M); 106 % of control at CDK2/CycD1 (1.0E-06 M). Besides, the Residual activity is given as 93 % of control at IKKalpha (1.0E-05 M) and 104 % of control at IKKalpha (1.0E-06 M).
